These results are taken from publication PMC3172300, “Modulation of Catalytic Activity in Multi-Domain Protein Tyrosine Phosphatases” (PLoS ONE, 2011).

Values joined by “and” are separate entries in the source; they are usually repeats but may differ in a detail not shown here. Equal values may be shown once. Square brackets hold non-standard residues; d marks the D form. Peptide text beside a SMILES is read from it. pY = N[C@@H](Cc1ccc(OP(=O)(O)O)cc1)C(=O)O

In experiment [1] the target is T1, DLAR D1 (Drosophila melanogaster, UniProt P16621).
T1 construct: DLAR 1448-1746; His tag (pET-15b or pET-22b); made in house; host or cells: E. coli BL21(DE3)
T1 sequence (P16621 1448-1746): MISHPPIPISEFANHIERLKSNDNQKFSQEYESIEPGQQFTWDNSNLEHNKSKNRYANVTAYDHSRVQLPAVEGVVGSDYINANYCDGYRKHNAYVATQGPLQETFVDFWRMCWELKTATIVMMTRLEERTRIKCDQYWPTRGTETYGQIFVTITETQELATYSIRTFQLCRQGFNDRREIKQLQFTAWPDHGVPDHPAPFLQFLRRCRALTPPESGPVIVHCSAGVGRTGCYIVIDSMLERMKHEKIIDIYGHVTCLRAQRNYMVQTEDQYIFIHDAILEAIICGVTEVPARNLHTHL
The experiment can be described thus: Surface Plasmon Resonance peptide binding, DLAR D1. To be noted: column first binding site, single-site model. On the procedure:
The binding of phosphotyrosine peptides to the PTP domains was studied by Surface Plasmon Resonance on a Biacore-2000 instrument (BIAcore, AB). All experiments were conducted at 25°C. DLAR PTP domains were immobilized onto carboxylated dextran CM5 chips (BIAcore AB) using the standard amine coupling procedure as recommended by the manufacturer. Binding and kinetic assays were performed in 10 mM HEPES, pH 8.0, 150 mM NaCl, 10 mM DTT and 3 mM EDTA at a flow rate of 5 µL/min. The peptides were used at concentrations ranging from 50–700 µM. Dissociation was initiated by replacing the analyte with buffer. The association and dissociation curves were monitored for 600 sec. Sensograms were analyzed with BIA-evaluation software version 2 (BIAcore AB). Sensograms for DLAR D1D2, DLAR D1HSSD2 and DLAR D1D2HSS were fitted to two-site binding equations. DLAR D1 and DLAR D2 sensograms were fitted using a single-site binding model.

A further experiment concerns the target T2, DLAR D1D2 (Drosophila melanogaster, UniProt P16621).
T2 construct: DLAR 1448-2029; His tag (pET-15b or pET-22b); made in house; host or cells: E. coli BL21(DE3)
T2 sequence (P16621 1448-2029): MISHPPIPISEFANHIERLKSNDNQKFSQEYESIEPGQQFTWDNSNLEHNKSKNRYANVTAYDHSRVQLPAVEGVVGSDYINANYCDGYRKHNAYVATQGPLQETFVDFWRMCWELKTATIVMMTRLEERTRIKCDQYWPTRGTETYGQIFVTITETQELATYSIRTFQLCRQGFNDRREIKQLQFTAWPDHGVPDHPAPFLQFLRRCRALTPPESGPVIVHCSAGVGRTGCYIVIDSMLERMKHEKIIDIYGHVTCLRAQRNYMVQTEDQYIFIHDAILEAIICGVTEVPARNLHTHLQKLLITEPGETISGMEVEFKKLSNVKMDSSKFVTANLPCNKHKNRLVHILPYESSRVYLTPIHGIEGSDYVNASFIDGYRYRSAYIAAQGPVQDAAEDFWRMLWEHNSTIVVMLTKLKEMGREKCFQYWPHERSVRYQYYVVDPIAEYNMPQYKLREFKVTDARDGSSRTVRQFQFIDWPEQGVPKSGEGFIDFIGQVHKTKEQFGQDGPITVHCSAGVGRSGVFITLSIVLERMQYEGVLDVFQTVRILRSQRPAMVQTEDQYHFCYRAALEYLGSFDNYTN
Put plainly: Phosphatase assay using pNPP, DLAR D1D2. The format is biochemical. Conditions: 2 mM DTT. The method, then:
(§1) Phosphatase activity of the recombinant PTP domains was determined by using para-Nitrophenylphosphate (pNPP), a small molecule generic substrate, as well as phosphotyrosine containing peptides. The pNPP assay was performed as reported previously, with a modification in the buffer composition (25 mM Citrate, Glycine and HEPES (CGH), pH 6.5, 100 mM NaCl and 2 mM DTT). Phosphatase activity with the phosphotyrosine peptides was ascertained by the malachite green reaction as described for PTPs previously. Briefly, the reaction mixture comprised of 0.01 µM protein incubated with increasing concentrations of different peptides in 25 mM citrate buffer pH 6.0, 100 mM NaCl and 2 mM DTT for 15 min at 25°C. The reaction was stopped by the addition of the Biomol Green reagent (Enzo Life Sciences) and the colour developed after 20 min was quantified at 650 nm. For all the assays, kinetic constants for the steady state catalysis were obtained by fitting the reaction curves to the Michaelis-Menten equation using the nonlinear regression module of Sigma plot software (Systat Software, Inc.).
(§2) The tandem PTP domains of PTP99A (PTP99A D1D2) and DLAR (DLAR D1D2) , the individual PTP domains (D1 and D2) as well as the active site mutants were expressed in E. coli and were purified using the protocols described earlier (Figure 1a, Figure S1a, b & c). The biochemical characterization and catalytic activity measurements were performed using pNPP as a substrate. […] Thus the D2 domain appears to have a regulatory role in both RPTPs- decreasing the catalytic activity in the case of DLAR while increasing the catalytic activity in the case of PTP99A (Figure 1b).

The target in experiment [2] is T1, DLAR D1. The experiment can be described thus: Phosphatase assay using pNPP, DLAR D1. The format is biochemical. Conditions: CGH buffer pH 6.5, 100 mM NaCl, 2 mM DTT. The method, then: as §1, §2
Experiment [3] deals with DLAR D1 active site cysteine to serine mutant. The experiment can be described thus: Phosphatase assay using pNPP, DLAR D1 active site Cys to Ser mutant. Conditions: active site cysteine to serine in D1. The format is biochemical, Drosophila melanogaster. The source says:
Cosmids containing the genes encoding RPTPs DLAR and PTP99A were a kind gift from Prof. Kai Zinn (Caltech). The PTP domains of PTP99A and DLAR were PCR amplified and ligated between the NheI and XhoI restriction sites of the bacterial expression vectors pET-15b and pET-22b. The active site mutants (with the nucleophilic cysteines in the PTP domains of DLAR and PTP99A mutated to serines) were obtained by using a single primer approach. An XbaI site was incorporated in the primers to aid screening of mutants. All clones were confirmed by sequencing (Macrogen Inc.). The details of the expression constructs are compiled in Table S1 and Figure 1a.
Phosphatase activity of the recombinant PTP domains was determined by using para-Nitrophenylphosphate (pNPP), a small molecule generic substrate, as well as phosphotyrosine containing peptides. The pNPP assay was performed as reported previously, with a modification in the buffer composition (25 mM Citrate, Glycine and HEPES (CGH), pH 6.5, 100 mM NaCl and 2 mM DTT). Phosphatase activity with the phosphotyrosine peptides was ascertained by the malachite green reaction as described for PTPs previously. […] The reaction was stopped by the addition of the Biomol Green reagent (Enzo Life Sciences) and the colour developed after 20 min was quantified at 650 nm. […]

The subject of experiment [4] is D958C mutant of the D2 domain of PTP99A. Put plainly: Phosphatase assay using pNPP, PTP99A D2 D958C mutant. The format is biochemical, Drosophila melanogaster. Conditions: D958C point mutant. The method, then:
as §1
Supplementary file pone.0024766.s005.tif: Figure S5 Characterization of the D958C mutant of the D2 domain of PTP99A. A: Size exclusion profile of wild-type and D958C mutant of the D2 domain of PTP99A. B: Circular Dichroism (CD) spectra of the wild type and D958C mutant. […]

Take `CC(C)C[C@H](NC(=O)[C@H](C)NC(=O)CNC(=O)[C@H](Cc1ccc(OP(=O)(O)O)cc1)NC(=O)[C@H](CC(=O)O)NC(=O)[C@@H]1CCCN1C(=O)[C@H](CCC(=O)O)NC(=O)[C@H](C)NC(=O)[C@@H](N)[C@@H](C)O)C(=O)N[C@@H](Cc1ccc(O)cc1)C(=O)N[C@@H](CCC(=O)O)C(=O)O` [Cuticle peptide] (H-TAEPD[pY]GALYE-OH): the kon at DLAR D1 [1] (SPR Biacore-2000, 25°C, 10 mM HEPES pH 8.0, 150 mM NaCl, 10 mM DTT, 3 mM EDTA, peptides 50–700 µM, read-out: ka) is 18.6 ± 1.46 M⁻¹ s⁻¹. For the same compound, the dissociation constant (Kd) (as a rule, the equilibrium constant for the complex coming apart) at DLAR D1 [1] (SPR, 25°C, pH 8.0) worked out at 94.6 ± 0.33 µM.
Regarding `O=[N+]([O-])c1ccc(OP(=O)(O)O)cc1` [pNPP, para-Nitrophenylphosphate], the Vmax (usually the rate approached at saturating substrate) at DLAR D1D2 (25 mM Citrate, Glycine and HEPES (CGH), pH 6.5, 100 mM NaCl, Michaelis-Menten fit) was 6.19 µmol/min/mg and 6.19 ± 0.14 µmol/min/mg; on DLAR D1 [2] (Michaelis-Menten fit), 20.56 µmol/min/mg and 20.56 ± 0.34 µmol/min/mg. Also, the Kcat at DLAR D1D2 (CGH buffer pH 6.5, 100 mM NaCl) amounted to 6.88 ± 0.16 s⁻¹; on DLAR D1 [2] it was 16.10 ± 0.27 s⁻¹. Further, the Kcat/Km is on record as 3.23 ± 0.09 x 10^3 sec^-1M^-1 on DLAR D1D2 (CGH buffer pH 6.5, 100 mM NaCl) and 16.03 ± 0.11 x 10^3 sec^-1M^-1 at DLAR D1 [2]. Besides, the PTPase activity entry in experiment [3] is “inactive enzyme”. The phosphatase activity entry in experiment [4] is “catalytically inactive”.
